“And” between values parts separate entries of the source, which are not always exact repeats. Equal values may be shown once. Blank lines part the entries; values can stand above or below the sequence they belong to.
Molecular target: T1, MyD88^TIR (Homo sapiens, UniProt Q99836)
T1 construct: MyD88 (residues 148–296); 6xHis; made in house; host or cells: E. coli BL21 (DE3)
Experiment: T‐Surf phage library (P8 and P3) selection against MyD88^TIR, four rounds, NGS read counts
Assay type: binding
Conditions: for P8_MyD88 Rank (after) / P8_MyD88 Rank (before): P8 library; for Population: 4th round of selection against MyD88 TIR, share of NGS reads; for P3_MyD88 Rank (after) / P3_MyD88 Rank (before): P3 library
How it was run: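 Read counts come from NGS of phage pools enriched over four selection rounds on the plate‐coated TIR domain (5 µg mL^−1). Each round: 1 h phage binding at room temperature after 0.2% BSA blocking, Tween washes, acid elution, amplification in E. coli TG1 with M13KO7 helper.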

[1] = selection against MyD88, rank after grouping
[2] = selection against MyD88, rank before grouping
[3] = selection against MyD88, rank by count after grouping
[4] = selection against MyD88, rank by count before grouping
[5] = P8_MyD88 pool: P8 T-Surf phage library
[6] = P8_MyD88: rank by count after grouping
[7] = P8_MyD88: rank by count before grouping
[8] = P3_MyD88 pool: P3 T-Surf phage library
[9] = 4R selection against MyD88, rank after grouping
[10] = 4R selection against MyD88, rank before grouping
[11] = P8_MyD88: rank by NGS read count after grouping
[12] = P8_MyD88: rank by NGS read count before grouping
[13] = P3_MyD88: rank by count after grouping
[14] = P3_MyD88: rank by count before grouping
[15] = selection against MyD88 TIR, rank by count after grouping
[16] = selection against MyD88 TIR, rank by count before grouping

T1 sequence (Q99836 148-296): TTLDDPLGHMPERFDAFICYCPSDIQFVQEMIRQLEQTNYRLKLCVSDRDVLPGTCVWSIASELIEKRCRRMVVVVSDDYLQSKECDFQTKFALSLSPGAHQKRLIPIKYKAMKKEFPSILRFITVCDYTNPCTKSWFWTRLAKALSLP

Sequence: WALAELLKILYAKEPM
P8_MyD88 Rank (after) [3]: 763
P8_MyD88 Rank (before) [4]: 1399

Sequence: MFGGDSFHDFLELISM
Rank (after) [6]: 391
Rank (before) [7]: 3656

Sequence: LKVESWRQALGKAGKL
Population [8]: 0.00349%

Sequence: NERGHVWSSKANSLVG
P3_MyD88 Rank (after) [9]: 615
P3_MyD88 Rank (before) [10]: 3454

Sequence: DPHGLEWIYERLVSLF
Rank (after) [11]: 923
Rank (before) [12]: 2629

Sequence: NFGYSTWALDELVKIM
Rank (after) [6]: 123
Rank (before) [7]: 132
Population [5]: 0.0135%

Sequence: WALDELLQILYARERF
Rank (after) [6]: 448
Rank (before) [7]: 1466

Sequence: PEKANGGENAFFNNIV
P3_MyD88 Rank (after) [1]: 566
P3_MyD88 Rank (before) [2]: 2705

Sequence: WALDELLQILHAREL
P8_MyD88 Rank (after) [1]: 577
P8_MyD88 Rank (before) [2]: 1451

Sequence: WDFAGNWEQFWDRLSY
P8_MyD88 Rank (after) [3]: 772
P8_MyD88 Rank (before) [4]: 1576

Sequence: YTALANSGFHTFHDND
P3_MyD88 Rank (after) [9]: 613
P3_MyD88 Rank (before) [10]: 1634

Sequence: NYASSPWALDELVKIF
P8_MyD88 Rank (after) [15]: 197
P8_MyD88 Rank (before) [16]: 295

Sequence: HWIDWEYFVALKIIL
Rank (after) [6]: 427
Rank (before) [7]: 1236

Sequence: DEAWFLTKLRISLEHL
P8_MyD88 Rank (after) [1]: 576
P8_MyD88 Rank (before) [2]: 2581

Sequence: LVAHQISKTIKIFATI
Rank (after) [13]: 389
Rank (before) [14]: 2314

Sequence: DVLYWALTEAGLRGFR
P8_MyD88 Rank (after) [1]: 578
P8_MyD88 Rank (before) [2]: 2557

Sequence: WALDELLQILHAKETM
P8_MyD88 Rank (after) [9]: 598
P8_MyD88 Rank (before) [10]: 1458

Sequence: KEVEVWRDALTKVVGL
P3_MyD88 Rank (after) [3]: 713
P3_MyD88 Rank (before) [4]: 3606

Sequence: DPQDLDWFYARLVRLF
P8_MyD88 Rank (after) [15]: 270
P8_MyD88 Rank (before) [16]: 2751

Sequence: PSEVRKQTGSLAKAAL
P3_MyD88 Rank (after) [9]: 593
P3_MyD88 Rank (before) [10]: 2756

Sequence: SNFREGLWRLLELSKK
Population [8]: 0.00408%

Sequence: DPQDLQWSYERLVSRI
Rank (after) [11]: 938
Rank (before) [12]: 2939

Sequence: SCFCEELCCVLELSKK
P3_MyD88 Rank (after) [9]: 656
P3_MyD88 Rank (before) [10]: 2938

Sequence: DPQDLGWFYERLVSLF
Population [5]: 0.00617%

Sequence: NELVHVWSSKANSLVG
P8_MyD88 Rank (after) [3]: 696
P8_MyD88 Rank (before) [4]: 3874

Sequence: DSQVLDWFYERLVSLL
Rank (after) [11]: 982
Rank (before) [12]: 2496

Sequence: LVAHEITKKLKSFATI
P3_MyD88 Rank (after) [9]: 641
P3_MyD88 Rank (before) [10]: 2309

Further lines, results first:

P8_MyD88 Rank (after) [1]: 575
P8_MyD88 Rank (before) [2]: 2743
Sequence: DPQDLDWFLNVWLTW

Population [5]: 0.00617%
Sequence: DPQDLAWFYERLVSLF

Rank (after) [13]: 447
Rank (before) [14]: 3673
Sequence: KERPFGAQRAEKCVP

Rank (after) [6]: 99
Rank (before) [7]: 396
Sequence: DPQDLDWFYERLVSPL

P3_MyD88 Rank (after) [1]: 562
P3_MyD88 Rank (before) [2]: 3219
Sequence: SSFREGMWRLMVLSKK

Rank (after) [6]: 184
Rank (before) [7]: 236
Sequence: LADALERYGIMFIIDK

P3_MyD88 Rank (after) [1]: 548
P3_MyD88 Rank (before) [2]: 3001
Sequence: SEKYAKSPWAKVGLVL

Rank (after) [11]: 1021
Rank (before) [12]: 3320
Sequence: LGYQWIAGEYFVGIED

P3_MyD88 Rank (after) [1]: 526
P3_MyD88 Rank (before) [2]: 2656
Sequence: RKGDLISDELRIPLEE

Rank (after) [11]: 898
Rank (before) [12]: 1967
Sequence: YLLLRVLQTIFLRRTD

P8_MyD88 Rank (after) [9]: 648
P8_MyD88 Rank (before) [10]: 3604
Sequence: QQISLVQLKVLEESHV

Rank (after) [11]: 926
Rank (before) [12]: 2666
Sequence: DPQGLDWYYVRLVSLL

Rank (after) [6]: 185
Rank (before) [7]: 251
Sequence: SPWALYELVEILTAYK

P8_MyD88 Rank (after) [15]: 272
P8_MyD88 Rank (before) [16]: 524
Sequence: WDFASSTWWLRELLQIA

P3_MyD88 Rank (after) [1]: 516
P3_MyD88 Rank (before) [2]: 3268
Sequence: SSVRECLWRLLELSKK

Population [8]: 0.00437% and 0.00378% and 0.0032%
P8_MyD88 Rank (after) [3]: 734
P8_MyD88 Rank (before) [4]: 3881
Sequence: NQWRNALTAAANLSGW

Rank (after) [13]: 390
Rank (before) [14]: 1919
Sequence: AVDKETDKIQTPLKAQ

P3_MyD88 Rank (after) [3]: 720
P3_MyD88 Rank (before) [4]: 1453
Sequence: YYLDPSHLRKQSGW

P8_MyD88 Rank (after) [15]: 245
P8_MyD88 Rank (before) [16]: 538
Sequence: YELDFSHFWLFEGPAG

P3_MyD88 Rank (after) [15]: 201
P3_MyD88 Rank (before) [16]: 3055
Sequence: SELRVEDDGSVIPLEM

Rank (after) [13]: 434
Rank (before) [14]: 2155
Sequence: EWIREQLRPALKNGW

Population [8]: 0.00466%
Sequence: SSFRECLWRLLELSKK

Rank (after) [13]: 457
Rank (before) [14]: 3136
Sequence: SSFRECLWRLEELSKK

— publication PMC11714206, “Massively Parallel Screening of Toll/Interleukin‐1 Receptor (TIR)‐Derived Peptides Reveals Multiple Toll‐Like Receptors (TLRs)‐Targeting Immunomodulatory Peptides” (Advanced Science, 2024)
